Test results from patent US11311523B2, “Pyridinone compound and use thereof” (KYUSHU UNIVERSITY, NATIONAL UNIVERSITY CORPORATION, priority 2015, dated 2022).

Tests used:
[1] = test system: mouse lung carcinoma cell line (3LL); assay: cellular invasion inhibition assay (Matrigel chamber); format: cell-based; settings: 3LL cells, 22 hours, compared to DMSO
Description: Pharmacological Test 2 (Cellular Invasion Inhibition Assay)
Three hundred microliters of a suspension of a mouse lung carcinoma cell line (3LL), a human fibrosarcoma cell line (HT-1080), or a human colon cancer cell line (DLD-1) in DMEM (serum free) was placed in the upper chamber with Matrigel (BD Biosciences) equilibrated with DMEM (serum free) for 120 minutes, while 500 μL of DMEM (with 10% FCS) was placed in the lower chamber. Each pyridinone compound or CPYPP dissolved at a predetermined concentration in DMSO was added to the culture media in both the upper and lower chambers. As a control, DMSO alone was added to the media. In all of the experiments, the final DMSO concentration was adjusted to 0.2%.
After the resulting products were cultured at 37° C. under 5% CO2 for 22 hours, the chambers were removed, and the culture media were removed. […] After staining, the inserts were cut out with a blade to prepare slides, and the cells were counted under an optical microscope.
The results were evaluated based on percent cell invasion (%: Invasion) and percent inhibition (%: inhibition). The percent cell invasion was obtained by converting the number of invading cells under each condition to percentage, taking the number of invading cells in the control, to which DMSO was added alone, as 100%; and the percent inhibition was obtained by deducting the percent cell invasion from 100.

[2] = test system: primary mouse embryonic fibroblasts (MEFs); assay: inhibition of ruffle formation after PDGF stimulation; format: cell-based; settings: 1 hour pretreatment
Description: Pharmacological Test 4 (Experiment on Inhibition of Ruffle Formation in Primary Mouse Embryonic Fibroblasts)
As disclosed in NPL 2, stimulation of primary mouse embryonic fibroblasts (MEFs) with a growth factor, such as PDGF, induces actin cytoskeletal remodeling, leading to the formation of two types of characteristic cellular membrane structures, peripheral ruffles and dorsal ruffles.
The peripheral ruffle and dorsal ruffle formation depends on Rac activation and requires the functions of DOCK1 and DOCK5. Importantly, it is known that the peripheral ruffle formation requires the functions of both DOCK1 and DOCK5 while the dorsal ruffle formation requires the function of DOCK1.
Therefore, the use of various pyridinone compounds in this assay system enables cell-level verification of DOCK1 selectivity.
Wild-type MEFs or MEFs from DOCK1-deficient (D1KO) mouse (obtained by the method disclosed in NPL 2) were suspended in DMEM (with 10% FBS) to a concentration of 2×10^4 cells/mL, and 150 μL of the resulting product was seeded on the glass portion of fibronectin-coated glass-bottom culture dishes.
After 36-hour culture at 37° C., the medium was changed to DMEM (serum free) containing 0.1% BSA, and 12-hour culture was performed to allow the cells to be serum-starved. Subsequently, the medium was changed to 100 μL of DMEM (serum free) containing DMSO in which each pyridinone compound or CPYPP was dissolved at a predetermined concentration, followed by pretreatment for 1 hour. A control was prepared using a culture medium to which DMSO was added alone. In all of the experiments, the final concentration of DMSO was adjusted to 0.2%.
Thereafter, 100 μL of DMEM that was warmed beforehand to 37° C. (serum free, containing 60 ng/mL of PDGF) was added to the above pretreated cells to stimulate the cells, followed by incubation at 37° C. for 7 minutes and further incubation at room temperature for 10 minutes in 150 μL of 4% paraformaldehyde solution to fix the cells. Then, PBS (containing 0.2% Triton X-100) was added to the fixed cells, and a 5-min incubation at room temperature was performed to permeabilize the cellular membranes. Thereafter, the cells were blocked with BSA, and the actin cytoskeleton was stained with Alexa Fluor 546-labeled phalloidin. Using a Zeiss LSM510 meta confocal laser scanning microscope, the number of cells in which peripheral ruffles and dorsal ruffles were formed was observed and counted.

[3] = molecular target: T1, DHR-2 domain of DOCK2 (Homo sapiens, UniProt Q92608); assay: in vitro GEF assay (Bodipy-FL-GTP loading of Rac); format: biochemical; settings: FIG. 11
T1 construct: Polypeptide fragments that correspond to the DHR-2 domain of DOCK1, DOCK2, or DOCK5; Histidine-SUMO (N); made in house; host or cells: E. coli Arctic express (DE3)
T1 sequence (Q92608 1211-1622 limits assumed): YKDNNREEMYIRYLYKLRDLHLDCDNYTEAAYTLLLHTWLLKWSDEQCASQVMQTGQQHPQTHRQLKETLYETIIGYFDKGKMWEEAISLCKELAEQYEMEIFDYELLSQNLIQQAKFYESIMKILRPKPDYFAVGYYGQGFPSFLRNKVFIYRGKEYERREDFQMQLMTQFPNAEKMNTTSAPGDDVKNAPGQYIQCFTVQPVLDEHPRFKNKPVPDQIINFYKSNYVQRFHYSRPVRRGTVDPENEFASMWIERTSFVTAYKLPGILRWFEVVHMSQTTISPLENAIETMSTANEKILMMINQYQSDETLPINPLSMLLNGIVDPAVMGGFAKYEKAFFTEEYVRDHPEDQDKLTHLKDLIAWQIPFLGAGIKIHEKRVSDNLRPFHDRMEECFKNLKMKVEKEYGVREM
Description: (§1) Pharmacological Test 1 (In Vitro GEF Assay)
(§2) DOCK1, DOCK2, and DOCK5, which are DOCK-A subfamily members, catalyze the GTP-GDP exchange reaction for Rac via the DHR-2 domain to activate Rac.
(§3) The in vitro GEF assay referred to in this specification used a labeled GTP (Bodipy-FL-GTP, Invitrogen), whose fluorescence intensity increases when bound to Rac.
(§4) Polypeptide fragments that correspond to the DHR-2 domain of DOCK1, DOCK2, or DOCK5 were expressed in E. coli Arctic express (DE3) cells as N-terminal Histidine-SUMO tag-fused recombinant proteins and purified by affinity column chromatography on nickel-NTA columns.
(§5) Rac was expressed in E. coli BL21 (DE3) cells as an N-terminal GST tag-fused recombinant protein and purified by affinity column chromatography on glutathione-Sepharose columns.
(§6) Subsequently, a reaction solution A containing 20 mM of MES-NaOH, 150 mM of NaCl, 10 mM of MgCl2, and 20 μM of GDP, and having an adjusted pH of 7.0 was incubated at room temperature for 30 minutes while being protected from light in the presence of each of the polypeptide fragments (DHR-2 domains) prepared above and each pyridinone compound or CPYPP dissolved at a predetermined concentration in DMSO or DMSO alone (control) to thus prepare GEF pretreated products. In all of the samples, the final DMSO concentration was adjusted to 3%.
(§7) Thereafter, 15 μM of Rac prepared above was added to the reaction solution A and directly allowed to stand on ice for 30 minutes to form a GDP-Rac complex.
(§8) Bodipy-FL-GTP was added to 100 μL of the reaction solution A containing the thus prepared GDP-Rac complex to a concentration of 3.6 μM, followed by equilibration at 30° C. for 2 minutes. After equilibration, 50 μL of the pretreated GEF was added for reaction at 30° C.
(§9) Changes in fluorescence intensity of Bodipy-FL-GTP were monitored during the reaction using an XS-N (Molecular Devices) or an Enspire spectrofluorometer (Perkin Elmer) (excitation wavelength: 488 nm, emission wavelength: 514 nm). The measured values were corrected so that the fluorescence intensity at the time that the reaction was initiated (0 seconds) was 0.
(§10) Then, an approximate curve (hyperbola) was obtained by plotting the calculated correction values on the y axis and the time (t) on the x axis using GraphPad Prism5 (GraphPad software), and the slope at t=0 to 10 seconds was considered to be an initial velocity of guanine nucleotide exchange reaction. The IC50 value was calculated taking the initial reaction velocity of the control, to which only a solvent (DMSO) was added, as 100%.

[4] = molecular target: T2, DHR-2 domain of DOCK5 (Homo sapiens, UniProt Q9H7D0); assay: in vitro GEF assay (Bodipy-FL-GTP loading of Rac); format: biochemical; settings: FIG. 11
T2 construct: Polypeptide fragments that correspond to the DHR-2 domain of DOCK1, DOCK2, or DOCK5; Histidine-SUMO (N); made in house; host or cells: E. coli Arctic express (DE3)
Description: as §1, §2, §3, §4, §5, §6, §7, §8, §9, §10

[5] = molecular target: T3, DHR-2 domain of DOCK1 (Homo sapiens, UniProt Q14185); assay: in vitro GEF assay (Bodipy-FL-GTP loading of Rac); format: biochemical
T3 construct: Polypeptide fragments that correspond to the DHR-2 domain of DOCK1, DOCK2, or DOCK5; Histidine-SUMO (N); made in house; host or cells: E. coli Arctic express (DE3)
T3 sequence (Q14185 1207-1617 limits assumed): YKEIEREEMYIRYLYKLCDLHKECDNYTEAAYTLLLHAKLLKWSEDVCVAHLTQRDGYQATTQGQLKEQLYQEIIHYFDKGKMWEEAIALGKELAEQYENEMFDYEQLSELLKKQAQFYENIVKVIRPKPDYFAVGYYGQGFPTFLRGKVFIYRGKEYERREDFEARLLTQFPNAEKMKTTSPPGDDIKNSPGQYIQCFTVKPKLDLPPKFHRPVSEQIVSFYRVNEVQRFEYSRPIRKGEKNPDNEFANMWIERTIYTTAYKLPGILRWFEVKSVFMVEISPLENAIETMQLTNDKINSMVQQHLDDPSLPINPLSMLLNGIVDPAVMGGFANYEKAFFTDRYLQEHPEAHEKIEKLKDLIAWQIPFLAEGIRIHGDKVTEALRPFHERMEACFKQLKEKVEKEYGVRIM
Description: as §1, §2, §3, §4, §5, §6, §7, §8, §9, §10

T2 sequence (Q9H7D0 1231-1642 limits assumed): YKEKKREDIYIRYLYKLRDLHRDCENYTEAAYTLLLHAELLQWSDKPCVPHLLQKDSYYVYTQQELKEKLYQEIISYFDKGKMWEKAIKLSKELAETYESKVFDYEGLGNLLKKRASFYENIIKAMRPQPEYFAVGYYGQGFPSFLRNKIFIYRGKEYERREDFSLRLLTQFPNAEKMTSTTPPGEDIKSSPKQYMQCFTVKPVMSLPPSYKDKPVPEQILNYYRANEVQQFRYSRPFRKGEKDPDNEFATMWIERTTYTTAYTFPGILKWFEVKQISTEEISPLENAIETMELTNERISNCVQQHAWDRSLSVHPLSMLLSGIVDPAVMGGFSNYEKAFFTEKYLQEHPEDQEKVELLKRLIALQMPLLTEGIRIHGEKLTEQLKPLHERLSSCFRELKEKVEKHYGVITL

IC50 [3] | IC50 [4] | IC50 ([5]; FIG. 11) | selectivity of GEF inhibition to DOCK1 versus DOCK2 and DOCK5 ([5]; from IC50 values for DOCK1, DOCK2, DOCK5) | Compound | inhibition of cancer cell (3LL) invasion [1] | dorsal ruffle formation [2] | peripheral ruffle formation [2]
 |  |  |  | O=C(Cn1cc(S(=O)(=O)N2CCCC2)ccc1=O)c1ccc(-c2ccc(C(F)(F)F)cc2)cc1 [TS-16, 1-(2-oxo-2-(4′-(trifluoromethyl)-[1,1′-biphenyl]-4-yl)ethyl)-5-(pyrrolidin-1-ylsulfonyl)pyridin-2(1H)-one] | significantly excellent inhibitory effect |  | 
 |  |  |  | Cc1cc(C(=O)Cn2cc(S(=O)(=O)N3CCCC3)ccc2=O)c(C)n1Cc1ccc(F)cc1 [Compound T-070444, 1-(2-(1-(4-fluorobenzyl)-2,5-dimethyl-1H-pyrrol-3-yl)-2-oxoethyl)-5-(pyrrolidin-1-ylsulfonyl)pyridin-2(1H)-one] |  | significantly inhibited | occurred in a similar manner to that of the control
39 µM | 14.8 µM | 20 µM | no selectivity | O=C1NN(c2ccccc2)C(=O)C1=CC=Cc1ccccc1Cl [CPYPP, reference compound] |  | inhibited both peripheral ruffle formation and dorsal ruffle formation | inhibited both peripheral ruffle formation and dorsal ruffle formation
